Test results published in patent publication US8012929B2, “Peptides directed for diagnosis and treatment of amyloid-associated diseases” (Tel Aviv University Future Technology Development L.P., priority 2002, dated 2011).
pIC50: −log10 of the molar value. Where two headings read alike, the source gives them in different places. Square brackets hold non-standard residues; d marks the D form. Peptide text beside a SMILES is read from it. Aib = CC(C)(N)C(=O)O

Legend:
HepG2 cells = assay: Cytotoxicity assay in hepatocytes; type: cell-based; details: up to 2.5×10^−4 M, 3H-Thymidine incorporation and Alamar-Blue assays
Procedure: Cytotoxicity assay in hepatocytes—Following culture (37° C. in an atmosphere of 5% CO2 and 100% humidity), HepG2 cells (ATCC Accession No: HB-8065) were seeded at a density of 5000 cells/well in 96 well optical plate (Nunc, Rochester, N.Y.). Culture was maintained in the logarithmic phase throughout the experiment. One day after seeding, peptides were dissolved in DMSO (1:10) and added to the wells to achieve final concentrations of 2.5×10^−4−1×10^−8. Each plate column (8 wells) was used to test one peptide in one concentration. A day following peptide addition, ^3H-Thymidine was added to the cell culture, and two days following addition cells were harvested. ^3H-Thymidine incorporation to the DNA of proliferating cells was measured in Top Count NTX counter (Packard, Quebec, Canada). […] The indicator was incubated for 18 hours and fluorescence was measured with 544 nm excitation/590 nm emission wavelengths. Data was presented as the mean amount of Alamar-Blue fluorescence or ^3H-Thymidine CPM monitored per well. Average was calculated per plate column. For Alamar-Blue signals standard deviation (SD) was calculated, while for ^3H Thymidine signal, standard error (SE) was calculated. […] Equivocal results were analyzed using oneway (ANOVA) with Dunnett Multiple comparison Test.

[1] = Membrane permeability in Caco-2 cell monolayer; type: in vitro ADME; details: human, apical to basolateral, read-out: recovery at the experimental end point
Procedure: Membrane permeability of D-Trp-Aib as studied in Caco-2 cells—The CaCo-2 system is based on the intestinal properties of the Caco-2 cells (ATCC Accession No. HTB-37), which preserved the polarity that is seen in the intestinal wall—an apical brush border that faces the intestinal lumen and a basolateral side that faces the body. After initial culturing (37° C. in an atmosphere of 5% CO2 and 100% humidity; medium: D-glucose DMEM supplemented with 1% Lglutamine, 1% nonessential amino acids, 1% sodium pyruvate, 1% penicillinstreptomycin, and 10% fetal bovine serum), cells were harvested and grown (14 days) on polycarbonate membranes, on which they formed a tight monolayer, (width of one cell, as in the intestine) allowing specific compounds to penetrate. […] D-Trp-Aib membrane permeability of the Caco-2 cell monolayer was assessed at concentrations of 0.2 mM and 1 mM, and compared to the standards propranolol (1 mM/apical buffer-see below) and ^3H-mannitol (5.26 Ci/mmole apical buffer—see below), known to pass via transcellular and paracellular routes, respectively. […] Substance samples and Propranolol standard were analyzed using HPLC. ^3H-Mannitol samples were subjected to analysis by liquid scintillation counting in a Packard TopCount NXT. […]

hERG potassium channel = target: T1, hERG potassium channel (Homo sapiens, UniProt Q12809); assay: Functional hERG assay (patch clamp); type: cell-based
T1 construct: expressed in transfected cells
Procedure: Functional hERG assay—Compounds were tested in duplicate in a 3-point dose response curve on HEK cells stably expressing the hERG potassium channel (GenBank Accession No. AAD01946). Potassium current was measured using the patch clamp technique on a Molecular Devices Patch Express 7000. hERG channels were activated by 2 second pulses to +20 mV from a holding potential of −80 mV, and K^+ currents were recorded upon repolarization to −50 mV. This voltage-clamp pulse protocol was performed continuously during the experiment (vehicle control, test compound, washout, and positive control additions). An interpulse interval of 15 seconds allowed recovery from any residual inactivation. Compounds were incubated with cells between 3-8 minutes until the current reached a steady state level. After compounds were tested, they were washed out with continuous perfusion for 3 minutes, followed by application of positive control (10 uM Cisparide).

[2] = Acute toxicity in mice, single i.v. dose; details: both sexes, mouse, in vivo, iv
Procedure: Acute Toxicity in Mice—Single dose LD50 or maximal tolerated dose (MTD) of D-Trp-Aib was evaluated by i.v. administration in mice (Harlan Biotech Israel). The sequential method applied in a stepwise procedure, using a minimum amount of animals. At a preliminary phase, an initial single target dose of 250 mg/kg was administered to a group of one male and one female. Further higher dose levels of 500, 1,000 and 750 mg/kg were administered in view of presence or absence of lethality incidence and/or severe adverse reactions at each applied level. The time intervals between the test groups dosing sessions were at least 24 hours. Following termination of the preliminary phase and based on its findings, a main phase was conducted where 5 males & 5 females were administered the jointly selected dose of 750 mg/kg, the highest dose level that was suspected to produce no mortality.

T1 sequence (Q12809 whole entry): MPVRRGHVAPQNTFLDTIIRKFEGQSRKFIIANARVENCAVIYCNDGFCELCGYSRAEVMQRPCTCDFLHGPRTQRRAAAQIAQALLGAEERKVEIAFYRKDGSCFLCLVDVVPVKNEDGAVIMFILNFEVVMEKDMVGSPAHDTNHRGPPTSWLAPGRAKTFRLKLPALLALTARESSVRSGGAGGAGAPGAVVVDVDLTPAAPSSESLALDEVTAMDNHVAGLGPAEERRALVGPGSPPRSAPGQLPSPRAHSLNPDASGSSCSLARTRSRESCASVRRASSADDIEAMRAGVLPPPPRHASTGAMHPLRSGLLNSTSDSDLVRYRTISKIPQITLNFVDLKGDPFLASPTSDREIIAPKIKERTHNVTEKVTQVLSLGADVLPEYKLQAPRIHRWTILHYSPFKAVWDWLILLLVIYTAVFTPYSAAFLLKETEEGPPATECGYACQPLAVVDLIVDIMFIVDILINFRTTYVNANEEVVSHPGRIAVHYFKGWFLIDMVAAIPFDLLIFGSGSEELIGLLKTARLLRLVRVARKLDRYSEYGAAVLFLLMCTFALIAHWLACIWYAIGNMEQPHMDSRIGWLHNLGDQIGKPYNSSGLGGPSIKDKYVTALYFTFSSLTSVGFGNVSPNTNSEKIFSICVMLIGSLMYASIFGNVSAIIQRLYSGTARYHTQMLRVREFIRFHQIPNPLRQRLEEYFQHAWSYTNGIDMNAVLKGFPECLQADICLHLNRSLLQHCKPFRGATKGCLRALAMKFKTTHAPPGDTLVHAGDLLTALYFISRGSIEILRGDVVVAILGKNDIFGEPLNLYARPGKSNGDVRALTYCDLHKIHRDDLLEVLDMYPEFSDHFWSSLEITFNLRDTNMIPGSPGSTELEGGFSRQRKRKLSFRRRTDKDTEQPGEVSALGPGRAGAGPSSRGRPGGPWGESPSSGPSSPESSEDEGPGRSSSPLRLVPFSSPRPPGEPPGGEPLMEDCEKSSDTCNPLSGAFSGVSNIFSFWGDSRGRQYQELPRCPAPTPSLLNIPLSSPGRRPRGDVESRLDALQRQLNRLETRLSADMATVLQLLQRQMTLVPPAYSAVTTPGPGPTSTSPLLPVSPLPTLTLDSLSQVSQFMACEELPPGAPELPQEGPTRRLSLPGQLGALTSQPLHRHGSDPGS

SMILES: CC(C)(NC(=O)[C@H](N)Cc1c[nH]c2ccccc12)C(=O)O [D-Trp-Aib] (H-[dW]-[Aib]-OH)
- cytotoxic effect on HepG2 cells (HepG2 cells): no cytotoxic effect
- recovery at 90 min ([1]; 0.2 mM): 37.9%
- recovery at 90 min, 1 mM ([1]; 1 mM): 19.3%
- effect on potassium channels (hERG potassium channel; HEK cells stably expressing hERG): did not show any effect on potassium channels
- pIC50 (hERG potassium channel; human, HEK cells stably expressing the hERG potassium channel, read-out: IC50 for potassium current): < 4.30
- MTD [2]: > 750 mg/kg
- MTD ([2]; single dose, i.v., read-out: maximal tolerated dose (MTD)): < 1000 mg/kg
